Assay: storage test of polymerisable liquid-crystal mixture P-1 with sealant containing photoinitiator, then UV irradiation in PS-VA test cells; RM-1 concentration by HPLC
Conditions: inferred from RM-1 polymerisation after storage 7 d at 80° C.
Protocol: A polymerisable liquid-crystal mixture P-1 consisting of • 1. 99.7% by weight of the nematic liquid-crystal mixture M-1 and • 2. 0.3% by weight of the polymerisable compound RM-1
[drawing 37] is prepared. Three samples of in each case 0.5 g of mixture P-1 are stored together with in each case 1 g of the commercially available sealant Unocol 2094® (APM Technica GmbH, Pürgen-Ummendorf), the latter in each case containing • 1. no photoinitiator • 2. 3.0% by weight of the photoinitiator according to the invention from Example 1 • 3. 3.0% by weight of the commercially available photoinitiator Irgacure651® of the structure shown below in a tightly sealed vial at 80° C. for 7 d with exclusion of air and light. A fourth sample of mixture P-1 is stored under the same conditions without the presence of sealant (blank experiment).
The mixtures are subsequently separated off from the sealant, in each case divided into two parts, introduced into PS-VA test cells and irradiated with a metal halide UV lamp with an intensity of 100 mW/cm^2 at 40° C. for a duration of 60 s or 180 s.
The PS-VA test cells consist of two plane-parallel glass plates having a cell gap of 4 μm, each of which are coated with an ITO electrode and with a polyimide alignment layer on top.
After the irradiation, the concentration of the polymerisable compound RM-1 is determined by HPLC.

COC(OC)(C(=O)c1ccccc1)c1ccccc1 [Irgacure651®]
photoinitiator dissolved out of the sealant into the liquid crystal during the storage test: considerable amounts of photoinitiator have dissolved in the liquid-crystal mixture

COC(OC)(C(=O)c1ccc(OCC(O)CO)cc1)c1ccc(OCC(O)CO)cc1 (centres unmarked) [Example 1, 1,2-Bis[4-(2,3-dihydroxypropoxy)phenyl]-2,2-dimethoxyethanone]
photoinitiator dissolved out of the sealant into the liquid crystal during the storage test: no photoinitiator according to the invention has been dissolved out of the sealant
